We go through eleven compounds from patent US20190375791A1, “NEW D-CONFIGURED CATESLYTIN PEPTIDE” (priority 2016, published 2019).

One data set has as its system E. coli (ATCC 25922). Kind of data set: Resistance acquisition assay. The class given is cell-based, Escherichia coli. The settings on record: E. coli wild type cultured at sub-MIC (½ MIC) concentrations, day 28. Here is the method:
FIG. 1: Resistance acquisition assay of E. coli in the presence of D-CTL compared to ampicillin and cefotaxim. Bacteria were cultured in the presence of ½ MIC of the antibacterial agent for […]. The fold change in MIC was evaluated at the indicated days. The graph is representative of two experiments done independently.
E. coli (ATCC® 25922™ ) strain was sequentially passaged every day in the presence of the different antibacterial compounds: D-CTL, ampicillin or cefotaxime at ½ MIC during 28 days. The changes in the MICs were determined as previously described by broth microdilution at the indicated times.

Another data set concerns Escherichia coli. Briefly: microbe, parasite or virus in culture. The settings on record: 24 h. Here is the method: (§1) E. coli K-12 mutant E2146 was kindly provided by the Institut Pasteur of Paris. […] It is resistant to specific antibiotics, i.e. ampicillin, chloramphenicol, and kanamycin.
(§2) MIC was determined by broth microdilution. […] Experiments were performed with biological replicates.

Data set [1] has as its system Escherichia coli Amp^R Kan^RChlo^R. The settings on record: Escherichia coli Amp^R Kan^R Chlo^R (multi-resistant), 24 hours incubation. Here is the method: as §1, §2
(§3) To this aim, they determined the Fractional Inhibitory Concentration Index (FICI) of the combination between D-CTL and each antibiotic of reference.

A further data set concerns Fusobacterium nucleatum. The settings on record: 24 h. Here is the method: as §1, §2, §3
In a further data set the test system is Prevotella intermedia. The settings on record: 24 h. Here is the method: as §1, §2, §3
For another data set, the system named is Parvimonas micra. Briefly: microbe, parasite or virus in culture. How it is done:
as §1, §2, §3

In data set [2] the test system is Staphylococcus aureus (MSSA). Kind of data set: microbe, parasite or virus in culture. How it is done:
as §1, §2, §3

Data set [3] can be described thus: Peptide stability assay towards bacterial virulence factors (supernatants) using HPLC. The class given is in vitro ADME. The settings on record: 24 hours. How it is done: FIG. 5: Stability of D-CTL and L-CTL towards the virulence factors of different bacterial strains. […] Chromatograms 1 correspond to supernantant only, chromatograms 2 correspond to supernatant and peptide and chromatograms 3 corresponds to peptide only.
Bacteria were then centrifuged for lmin at 13000rpm and the supernatant filtered using a 0,2 μm Millex filter (Merck-Millipore) to remove any residual bacteria.

The next data set relates to Enterococcus faecalis. Format: cell-based. Particulars: for bacterial growth inhibition of E. faecalis: peptides at 200 μg/mL. Here is the method: Enterococcus faecalis (CCM 2541) was obtained from the Czechoslovac Collection of Microorganisms (Czech Republic) Bacteria were cultured in Anaerobe Basal Broth (Oxoid, France) at 37° C. in anaerobic conditions. Candida albicans (ATCC© 10231™) was cultured in Sabouraud medium (BD, France) supplemented with tetracycline (10 μg/mL) and cefotaxime (10 μg/mL).
An overnight culture of each pathogen was diluted (OD600 nm=0.001) and incubated at 37° C. in 96-plates in the presence of different concentrations of antimicrobial agents. When testing Ca(OH)2, the pH of the solution was measured with by pH meter. (CyberScan pH 510©, Eutech, France). After 24 h incubation, the OD620 nm was evaluated with a spectrophotometer (Multikan EX, ThermoScientific, France). Each assay was done at least in triplicate. For each set of assay, the standard deviation was determined.

The conditions of data set [4]: Ca(OH)2 0,85 g/L pH 8,5, ½ MIC of D-CTL, HPLC. Here is the method: The samples were then analyzed by HPLC. Chromatogram 1 corresponds to D-CTL, chromatogram 2 corresponds to D-CTL diluted in a saturated solution of Ca(OH)2 (pH 9). Absorbance is expressed in Unity of Milli-Absorbance (UmA) depending on the time in minutes (min).
Regarding the stability of D-CTL in Ca(OH)2, the peptide was incubated in a buffered Ca(OH)2 solution at 37° C. for 24 h. The pH of the Ca(OH)2 solution was buffered at the same pH than the one determined during the broth dilution assays. As negative controls, D-CTL in water was also incubated at 37° C. for 24 h.
(§4) The samples were analyzed by HPLC (Dionex, Ultimate 3000, CA USA) using a Nucleosil reverse-phase 300-5C18-colum (4,6×250 mm; particle size: 5 μm; porosity, 300 Å) (Macherey Nagel, France). Two solvents used were: 0.1% (v/v) TFA in water (Solvent A) and 0.09% (v/v) TFA in 70% (v/v) acetonitrile-water (solvent B). Absorbance was measured at 214 nm (A214 nm). The flow rate for elution was 0,7 mL/min with a gradient of solvent B as indicated on the chromatograms.

For data set [5] the following is noted: 300 μg/mL, 37° C., 24 h, HPLC. Here is the method:
as §4

The conditions of data set [6]: 19 μg peptide in 100 μL supernatant, 37° C., 24 h, HPLC. From the text:
Absence of growth was interpreted as lack of viable microorganism.
Absorbance was monitored at 214 nm and the solvent system consisted of 0.1% (v/v) TFA in water (solvent A) and 0.09% (v/v) TFA in 70% (v/v) acetonitrile-water (solvent B).

For data set [7] the following is noted: saliva from ten healthy volunteers, 24 hours.
Description: Saliva from ten healthy volunteers was incubated with D-CTL or L-CTL for 24 hours and peptide stability was then assessed by LC-SRM. The analyses were performed on an Agilent 1100 Series HPLC system hyphenated to a QQQ-6490 triple quadrupole (Agilent Technologies). A total of 48 transitions (6 precursors) were monitored in an unscheduled mode within a total cycle time of 3 000 ms.
All samples were centrifuged at 14 000 g during 5 min at +4° C. and then diluted 3 times in water with 0.1% (v/v) HCOOH. For each sample, 2 μL were injected on the LC-SRM system. All separations were carried out on Agilent 1100 Series HPLC system (Agilent Technologies). For each analysis, the sample was loaded into a trapping column ZORBAX 300SB-C18 MicroBore Guard 5 gm, 1.0×17 mm (Agilent Technologies) at 50 μL/min with aqueous solution containing 0.1% (v/v) HCOOH and 2% CH3CN. After 3 min trapping, the column was put on-line with a ZORBAX 300SB-C18 3.5 μm, 0.3×150 mm column (Agilent Technologies). […]
For LC-SRM assay, each peptide was targeted with either an oxidized or non-oxidized state [[sequence]]. […] For each of the 6 precursors, 8 transitions were monitored (48 transitions in total) on a QQQ-6490 triple quadrupole mass spectrometer (Agilent technologies) in unscheduled mode and within a cycle time of 3 000 s. […] The reference value was calculated using the equation given by the supplier. […]
For data set [8], the system named is Staphylococcus aureus (MRSA). Kind of data set: microbe, parasite or virus in culture. The settings on record: 24 h. How it is done: as §1, §2, §3
The test system of the next data set is Candida albicans. Kind of data set: microbe, parasite or virus in culture. The class given is cell-based. How it is done: Candida albicans (ATCC© 10231™ distributed by LGC Standards, Molsheim, France) was cultured in Sabouraud medium (Sigma-Aldrich) supplemented with tetracycline (10 μg/mL) and cefotaxime (10 μg/mL) at 37° C. for 24 h. Candida albicans (OD600 nm=0,001) were plated in 96-well plates and treated either with different concentrations of the peptides of interest, and/or with different concentrations of voriconazole (VCZ) (Sigma-Aldrich). As a positive control, cells were treated with 10 μg/mL VCZ. After 24 h incubation, yeast growth was assessed by optical density OD600 nm using a spectrophotometer (Multiscan EX, Shanghai, China).
The MFC is defined as the lowest concentration of peptide able to inhibit 100% of yeasts, and determined using a modified Gompertz model as described in Lambert et Pearson (Lambert and Pearson 2000, J Appl Microbiol, 88(5): 784-790).
The efficiency of the combination D-CTL/VCZ was determined by the calculation of the Fractional inhibitory concentration (FIC) index according to the following formula: FICI=FICD-CTL+FICVCZ. According to EUCAST (European Committee on Antimicrobial Suscpetibility Testing), the effect of the combination is synergistic if FICI≤0,5, additive if 0,5<FICI≤1, indifferent if 1<FICI<2, antagonistic if FICI≥2^40-41. • Results D-CTL Inhibits the Groth of C. albicans

In brackets after ≈: the same amount, converted by molar mass. Where a SMILES comes first, the peptide text is derived from it. [ ]: non-standard residue; d: D form.

Take `CC1(C)S[C@@H]2[C@H](NC(=O)[C@H](N)c3ccccc3)C(=O)N2[C@H]1C(=O)O` [Ampicillin]: in the data set on E. coli (ATCC 25922), the “change in MIC over the culture” value is reported as 3 times the MIC.
`NC[C@H]1O[C@H](O[C@H]2[C@H](O)[C@@H](O[C@H]3O[C@H](CO)[C@@H](O)[C@H](N)[C@H]3O)[C@H](N)C[C@@H]2N)[C@H](O)[C@@H](O)[C@@H]1O` [Kanamycin] returned an MIC with Escherichia coli (Escherichia coli) of 21.6 µg/mL (≈ 44.6 µM).
Regarding `CSCC[C@@H](NC(=O)[C@@H](CO)NC(=O)[C@H](N)CCCNC(=N)N)C(=O)N[C@H](CCCNC(=N)N)C(=O)N[C@H](CC(C)C)C(=O)N[C@H](CO)C(=O)N[C@H](Cc1ccccc1)C(=O)N[C@H](CCCNC(=N)N)C(=O)N[C@H](C)C(=O)N[C@H](CCCNC(=N)N)C(=O)NCC(=O)N[C@H](Cc1ccc(O)cc1)C(=O)NCC(=O)N[C@H](Cc1ccccc1)C(=O)N[C@H](CCCNC(=N)N)C(=O)O` [D-CTL] (H-[dR][dS][dM][dR][dL][dS][dF][dR][dA][dR]G[dY]G[dF][dR]-OH; N-terminus and C-terminus assumed), the MIC with Escherichia coli is 8 µg/mL (≈ 4.3 µM); in data set [1], 8.4 µg/mL; with Fusobacterium nucleatum, 22.4 µg/mL; in the data set on Prevotella intermedia, 10 µg/mL; in the data set on Parvimonas micra (24 hours incubation), 23 µg/mL; in [2] (Staphylococcus aureus (MSSA), 24 hours incubation) it was 24 µg/mL. Besides, the “degradation in bacterial supernatants” value in data set [3] (all bacterial supernatants tested, 37° C.) is “not degraded”. In the data set with Enterococcus faecalis, the “MIC on E. faecalis” value worked out at 156 µg/mL (≈ 83.9 µM). Moreover, the “stability in a buffered solution of Ca(OH)2” value in data set [4] was “stable”. For the same compound, the “degradation in the supernatant of E. faecalis” value in [5] is “not degraded”. In data set [6], the “stability in the supernatant of Candida albicans” value is given as “remains stable”. Besides, in data set [7], the stability in saliva result is “stable”.
Consider `CN[C@H](CC(C)C)C(=O)N[C@H]1C(=O)N[C@@H](CC(N)=O)C(=O)N[C@H]2C(=O)N[C@H]3C(=O)N[C@H](C(=O)N[C@H](C(=O)O)c4cc(O)cc(O)c4-c4cc3ccc4O)[C@H](O)c3ccc(c(Cl)c3)Oc3cc2cc(c3O[C@@H]2O[C@H](CO)[C@@H](O)[C@H](O)[C@H]2O[C@H]2C[C@](C)(N)[C@H](O)[C@H](C)O2)Oc2ccc(cc2Cl)[C@H]1O` [Vancomycin], for which, in data set [8] (Staphylococcus aureus, MRSA), the MIC was found to be 0.8 µg/mL.
`CC1(C)S[C@@H]2[C@H](NC(=O)[C@H](N)c3ccc(O)cc3)C(=O)N2[C@H]1C(=O)O` [Amoxicillin]: the MIC with Parvimonas micra (24 h) came to 0.45 µg/mL.
Regarding “RILSILRHQNLLKELQDLAL [CHR, bovine chromofungin bCgA47-70]”, in the data set on Enterococcus faecalis, the “bacterial growth inhibition of E. faecalis” value is “no antimicrobial activity”.
Consider `C[C@@H](c1ncncc1F)[C@](O)(Cn1cncn1)c1ccc(F)cc1F` [VCZ, voriconazole], for which the MFC in the data set with Candida albicans (Candida albicans, 24 h, modified Gompertz model, read-out: minimal fungicidal concentration (MFC)) came to 0.07 µg/mL. Also, the FIC in the data set with Candida albicans (combination D-CTL/VCZ on Candida albicans) is recorded as 0.25.
For the compound RSMRLSFRARGYGFRGPGLQL [CAT], in the data set with Enterococcus faecalis, the “bacterial growth inhibition of E. faecalis” value is on record as “no antimicrobial activity”.
As for `COc1cccc(OC)c1C(=O)N[C@@H]1C(=O)N2[C@@H]1SC(C)(C)[C@@H]2C(=O)O` [Methicillin], in data set [2] (Staphylococcus aureus, MSSA, 24 h), the MIC stood at 1.2 µg/mL.
Turning to `CO/N=C(\C(=O)N[C@@H]1C(=O)N2C(C(=O)O)=C(COC(C)=O)CS[C@H]12)c1csc(N)n1` [Cefotaxim], in data set [1], the MIC was determined as 0.09 µg/mL. Also, in the data set with E. coli (ATCC 25922), the “change in MIC over the culture” value is listed as 3 times the MIC.
Turning to `CSCC[C@H](NC(=O)[C@H](CO)NC(=O)[C@@H](N)CCCNC(=N)N)C(=O)N[C@@H](CCCNC(=N)N)C(=O)N[C@@H](CC(C)C)C(=O)N[C@@H](CO)C(=O)N[C@@H](Cc1ccccc1)C(=O)N[C@@H](CCCNC(=N)N)C(=O)N[C@@H](C)C(=O)N[C@@H](CCCNC(=N)N)C(=O)NCC(=O)N[C@@H](Cc1ccc(O)cc1)C(=O)NCC(=O)N[C@@H](Cc1ccccc1)C(=O)N[C@@H](CCCNC(=N)N)C(=O)O` [L-CTL] (H-RSMRLSFRARGYGFR-OH; N-terminus and C-terminus assumed), the MIC was 75 µg/mL (≈ 40.3 µM) in the data set on Escherichia coli; 150 µg/mL in data set [1]; 125.3 µg/mL with Fusobacterium nucleatum; 148.6 µg/mL with Prevotella intermedia; 120 µg/mL with Parvimonas micra (24 hours incubation); 37 µg/mL in data set [8]. Moreover, the MIC in [2] (24 h) stood at 40 µg/mL. In addition, the “degradation by virulence factors” value in data set [3] (supernatant of E. coli multiresistant strain) and in data set [3] (supernatant of E. coli wild type strain) was “degraded” throughout. Further, the “stability in the supernatant of Candida albicans” value in [6] is “degraded”. Besides, the stability in saliva entry in data set [7] is recorded as “unlike L-CTL, D-CTL was stable”.
